Results taken from ChEMBL document CHEMBL1681650, “Scaffold oriented synthesis. Part 4: design, synthesis and biological evaluation of novel 5-substituted indazoles as potent and selective kinase inhibitors employing heterocycle forming and multicomponent reactions” (Bioorg Med Chem Lett, 2011).

Columns and labels:
[1] = target: Rho-associated protein kinase 2 (Homo sapiens, UniProt O75116); test: Inhibition of Rock2
[2] = target: Serine/threonine-protein kinase pim-1 (Homo sapiens, UniProt P11309); test: Inhibition of Pim1
[3] = target: Glycogen synthase kinase-3 beta (Homo sapiens, UniProt P49841); test: Inhibition of GSK3-beta
[4] = target: Serine/threonine-protein kinase PAK 4 (Homo sapiens, UniProt O96013); test: Inhibition of Pak4
[5] = target: Vascular endothelial growth factor receptor 2 (Homo sapiens, UniProt P35968); test: Inhibition of KDR
[6] = target: Tyrosine-protein kinase JAK2 (Homo sapiens, UniProt O60674); test: Inhibition of JAK2
[7] = target: Epidermal growth factor receptor (Homo sapiens, UniProt P00533); test: Inhibition of EGFR
Sequence of Epidermal growth factor receptor (P00533 whole entry): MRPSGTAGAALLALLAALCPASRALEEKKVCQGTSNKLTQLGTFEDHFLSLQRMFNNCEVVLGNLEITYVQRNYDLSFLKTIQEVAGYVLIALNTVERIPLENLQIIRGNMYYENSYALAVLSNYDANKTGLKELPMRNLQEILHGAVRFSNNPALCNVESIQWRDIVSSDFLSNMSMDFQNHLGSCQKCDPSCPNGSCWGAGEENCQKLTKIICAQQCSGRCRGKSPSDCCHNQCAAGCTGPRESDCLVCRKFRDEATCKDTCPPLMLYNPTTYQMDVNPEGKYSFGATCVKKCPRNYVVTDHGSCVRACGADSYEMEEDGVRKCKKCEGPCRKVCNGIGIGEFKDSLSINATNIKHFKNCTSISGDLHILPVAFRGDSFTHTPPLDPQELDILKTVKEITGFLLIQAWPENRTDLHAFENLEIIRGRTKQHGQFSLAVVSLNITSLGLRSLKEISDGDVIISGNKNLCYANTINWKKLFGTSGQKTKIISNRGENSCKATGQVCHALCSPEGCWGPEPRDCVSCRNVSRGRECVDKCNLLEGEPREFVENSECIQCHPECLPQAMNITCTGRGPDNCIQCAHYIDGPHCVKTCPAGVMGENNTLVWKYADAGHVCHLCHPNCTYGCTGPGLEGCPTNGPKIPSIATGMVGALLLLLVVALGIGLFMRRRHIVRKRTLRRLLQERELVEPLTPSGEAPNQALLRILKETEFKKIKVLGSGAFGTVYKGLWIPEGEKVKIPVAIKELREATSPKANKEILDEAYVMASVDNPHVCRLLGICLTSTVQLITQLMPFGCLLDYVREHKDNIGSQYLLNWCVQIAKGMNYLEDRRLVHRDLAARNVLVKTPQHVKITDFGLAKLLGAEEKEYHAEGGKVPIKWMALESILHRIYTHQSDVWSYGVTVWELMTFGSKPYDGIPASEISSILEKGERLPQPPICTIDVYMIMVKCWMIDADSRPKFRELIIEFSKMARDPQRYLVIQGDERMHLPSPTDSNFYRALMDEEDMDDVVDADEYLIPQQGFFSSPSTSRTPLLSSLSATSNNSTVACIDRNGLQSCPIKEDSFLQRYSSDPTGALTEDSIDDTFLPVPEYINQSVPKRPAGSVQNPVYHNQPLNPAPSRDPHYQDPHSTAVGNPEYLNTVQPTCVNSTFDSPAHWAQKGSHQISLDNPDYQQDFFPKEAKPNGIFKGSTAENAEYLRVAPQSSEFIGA

Sequence of Vascular endothelial growth factor receptor 2 (P35968 whole entry): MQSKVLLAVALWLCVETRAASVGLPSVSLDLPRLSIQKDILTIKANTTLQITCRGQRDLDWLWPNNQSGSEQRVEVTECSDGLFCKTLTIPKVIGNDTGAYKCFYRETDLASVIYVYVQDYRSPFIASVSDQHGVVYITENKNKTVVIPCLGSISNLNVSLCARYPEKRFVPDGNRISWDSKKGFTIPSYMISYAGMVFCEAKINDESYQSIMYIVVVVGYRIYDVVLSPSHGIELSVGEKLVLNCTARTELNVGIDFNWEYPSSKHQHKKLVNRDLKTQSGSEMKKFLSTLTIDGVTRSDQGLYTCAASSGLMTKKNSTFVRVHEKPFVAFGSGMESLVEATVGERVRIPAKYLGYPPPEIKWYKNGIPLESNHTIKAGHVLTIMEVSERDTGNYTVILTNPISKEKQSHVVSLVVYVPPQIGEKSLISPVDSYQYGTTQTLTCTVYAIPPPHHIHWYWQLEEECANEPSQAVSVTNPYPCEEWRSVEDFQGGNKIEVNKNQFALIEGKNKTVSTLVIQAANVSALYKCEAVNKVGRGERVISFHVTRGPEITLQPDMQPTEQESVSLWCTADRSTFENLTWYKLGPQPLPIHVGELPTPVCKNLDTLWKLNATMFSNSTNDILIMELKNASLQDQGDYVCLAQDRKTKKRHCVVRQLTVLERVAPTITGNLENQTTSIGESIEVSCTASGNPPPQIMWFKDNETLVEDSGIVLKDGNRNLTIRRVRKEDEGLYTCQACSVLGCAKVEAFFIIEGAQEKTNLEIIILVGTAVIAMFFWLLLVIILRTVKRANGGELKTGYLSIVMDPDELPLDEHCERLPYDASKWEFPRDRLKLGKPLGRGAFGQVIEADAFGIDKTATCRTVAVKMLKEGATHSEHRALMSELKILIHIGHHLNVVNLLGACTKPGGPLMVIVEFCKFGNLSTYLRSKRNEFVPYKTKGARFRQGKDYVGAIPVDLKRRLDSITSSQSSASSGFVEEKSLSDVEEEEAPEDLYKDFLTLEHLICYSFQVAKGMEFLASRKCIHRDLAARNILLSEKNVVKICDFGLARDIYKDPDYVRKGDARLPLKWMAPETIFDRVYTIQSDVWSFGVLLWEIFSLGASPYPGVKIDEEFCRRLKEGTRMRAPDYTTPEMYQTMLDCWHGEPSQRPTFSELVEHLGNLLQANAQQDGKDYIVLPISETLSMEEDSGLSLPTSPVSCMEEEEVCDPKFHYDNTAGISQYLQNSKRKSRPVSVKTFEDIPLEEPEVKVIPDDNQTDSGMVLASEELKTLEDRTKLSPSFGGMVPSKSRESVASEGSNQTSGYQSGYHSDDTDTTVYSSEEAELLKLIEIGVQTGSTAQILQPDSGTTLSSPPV
Sequence of Rho-associated protein kinase 2 (O75116 whole entry): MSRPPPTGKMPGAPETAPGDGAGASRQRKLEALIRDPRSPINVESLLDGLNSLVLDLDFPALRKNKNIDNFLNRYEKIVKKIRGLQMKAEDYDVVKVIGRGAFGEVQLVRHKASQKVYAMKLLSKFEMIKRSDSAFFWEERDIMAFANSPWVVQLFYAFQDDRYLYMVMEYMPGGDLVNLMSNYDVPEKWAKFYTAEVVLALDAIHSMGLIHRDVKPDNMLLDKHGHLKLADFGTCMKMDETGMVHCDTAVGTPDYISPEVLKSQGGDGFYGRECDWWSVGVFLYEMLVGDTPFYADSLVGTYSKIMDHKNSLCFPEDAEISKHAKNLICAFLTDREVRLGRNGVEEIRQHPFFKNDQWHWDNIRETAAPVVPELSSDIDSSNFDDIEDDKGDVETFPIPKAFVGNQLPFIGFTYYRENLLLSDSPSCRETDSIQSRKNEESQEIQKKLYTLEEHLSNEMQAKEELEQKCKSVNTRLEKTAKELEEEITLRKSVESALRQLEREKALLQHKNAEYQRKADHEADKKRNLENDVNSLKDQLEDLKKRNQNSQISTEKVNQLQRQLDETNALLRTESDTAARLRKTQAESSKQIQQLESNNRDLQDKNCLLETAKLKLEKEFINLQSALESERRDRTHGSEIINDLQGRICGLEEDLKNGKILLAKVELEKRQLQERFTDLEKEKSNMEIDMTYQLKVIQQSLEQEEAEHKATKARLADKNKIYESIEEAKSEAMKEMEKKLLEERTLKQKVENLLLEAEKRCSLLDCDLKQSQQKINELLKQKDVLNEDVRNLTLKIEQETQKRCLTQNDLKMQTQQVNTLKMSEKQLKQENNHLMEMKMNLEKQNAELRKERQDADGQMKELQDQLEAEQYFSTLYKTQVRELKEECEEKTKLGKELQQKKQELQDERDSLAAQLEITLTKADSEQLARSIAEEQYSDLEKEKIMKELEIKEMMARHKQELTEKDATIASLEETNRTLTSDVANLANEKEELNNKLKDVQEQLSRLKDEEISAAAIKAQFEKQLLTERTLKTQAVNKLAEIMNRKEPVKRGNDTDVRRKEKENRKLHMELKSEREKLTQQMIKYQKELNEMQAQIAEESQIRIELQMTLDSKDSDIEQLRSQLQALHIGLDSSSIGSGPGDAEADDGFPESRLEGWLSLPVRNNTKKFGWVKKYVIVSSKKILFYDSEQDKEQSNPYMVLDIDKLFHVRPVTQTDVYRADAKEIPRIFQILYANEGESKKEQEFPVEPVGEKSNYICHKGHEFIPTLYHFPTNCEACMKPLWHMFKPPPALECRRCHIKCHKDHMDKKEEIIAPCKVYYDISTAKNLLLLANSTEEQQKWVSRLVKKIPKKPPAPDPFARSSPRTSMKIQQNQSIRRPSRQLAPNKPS
Sequence of Glycogen synthase kinase-3 beta (P49841 whole entry): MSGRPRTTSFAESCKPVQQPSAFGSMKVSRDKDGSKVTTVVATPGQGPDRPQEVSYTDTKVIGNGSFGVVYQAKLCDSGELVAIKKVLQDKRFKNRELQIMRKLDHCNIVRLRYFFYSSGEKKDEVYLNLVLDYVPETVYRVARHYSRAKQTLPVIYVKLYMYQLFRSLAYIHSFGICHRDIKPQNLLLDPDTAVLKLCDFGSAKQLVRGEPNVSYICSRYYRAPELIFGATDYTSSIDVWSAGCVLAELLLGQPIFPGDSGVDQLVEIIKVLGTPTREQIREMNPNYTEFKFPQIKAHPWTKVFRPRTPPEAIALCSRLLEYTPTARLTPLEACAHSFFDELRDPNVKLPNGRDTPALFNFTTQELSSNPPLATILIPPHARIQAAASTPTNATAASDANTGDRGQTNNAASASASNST
Sequence of Serine/threonine-protein kinase pim-1 (P11309 whole entry): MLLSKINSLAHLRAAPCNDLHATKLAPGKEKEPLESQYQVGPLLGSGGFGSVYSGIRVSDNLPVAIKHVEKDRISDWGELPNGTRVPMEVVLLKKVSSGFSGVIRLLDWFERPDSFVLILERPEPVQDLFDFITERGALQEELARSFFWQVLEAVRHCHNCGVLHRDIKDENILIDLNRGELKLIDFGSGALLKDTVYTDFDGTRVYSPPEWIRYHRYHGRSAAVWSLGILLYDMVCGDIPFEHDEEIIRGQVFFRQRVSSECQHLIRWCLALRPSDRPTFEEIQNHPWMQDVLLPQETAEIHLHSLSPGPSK

Ki [1] [nM]	Ki [2] [nM]	Ki [3] [nM]	Ki [4] [nM]	Ki [5] [nM]	Ki [6] [nM]	Ki [7] [nM]	Structure (SMILES)
909	2900	4470	> 3750	> 8880	–	–	Nc1nc(-c2ccc3[nH]ncc3c2)cs1
1410	> 8750	> 5450	> 3750	> 8880	–	–	c1ccc(Nc2nc(-c3ccc4[nH]ncc4c3)c(-c3ccccc3)s2)cc1
2480	2310	2610	–	–	–	–	c1ccn2c(NC3CCCCC3)c(-c3ccc4[nH]ncc4c3)nc2c1
116	114	19	> 3750	> 8880	–	–	CCCCNc1c(-c2ccc3[nH]ncc3c2)nc2ncccn12
1560	> 8750	121	> 3750	> 8880	–	–	Clc1ccc(Nc2c(-c3ccc4[nH]ncc4c3)nc3ncccn23)cc1
622	1290	642	–	5340	–	–	c1cn2c(NC3CCCCC3)c(-c3ccc4[nH]ncc4c3)nc2s1
> 6000	> 8750	> 5450	> 3750	> 8880	> 1450	8	Fc1ccc(-c2ncn(C3CCN(Cc4ccccc4)C3)c2-c2ccc3[nH]ncc3c2)cc1 (centres undefined)

Continued, molecule first:

Structure (SMILES)	Ki [1] [nM]	Ki [2] [nM]	Ki [3] [nM]	Ki [4] [nM]	Ki [5] [nM]	Ki [6] [nM]	Ki [7] [nM]
c1ccc(-c2c(-c3ccc4[nH]ncc4c3)nc3ncccn23)cc1	6	339	10	> 3750	> 8880	–	–
Cc1nc(-c2ccc3[nH]ncc3c2)cs1	513	4160	2860	> 3750	> 8880	–	–
CCNc1nc(-c2ccc3[nH]ncc3c2)cs1	888	1950	3930	> 3750	> 8880	–	–
c1ccc(CCNc2nc(-c3ccc4[nH]ncc4c3)cs2)cc1	364	> 8750	> 5450	> 3750	> 8880	–	–
c1ccc(CNc2nc(-c3ccc4[nH]ncc4c3)c(-c3ccccc3)s2)cc1	822	> 8750	3400	> 3750	> 8880	–	–
c1cn2c(NC3CCCCC3)c(-c3ccc4[nH]ncc4c3)nc2cn1	–	1850	–	–	–	–	–
CN(C)CCn1cnc(-c2ccc(F)cc2)c1-c1ccc2[nH]ncc2c1	> 6000	> 8750	> 5450	> 3750	> 8880	> 1450	67
Fc1ccc(-c2ncn(CCCN3CCOCC3)c2-c2ccc3[nH]ncc3c2)cc1	> 6000	> 8750	> 5450	> 3750	> 8880	> 1450	27
